# Source: ChEMBL document CHEMBL6114996, “Design, synthesis, and biological evaluation of β-carboline derivatives as ABCB1 inhibitors for reversing multidrug resistance” (Eur J Med Chem, 2025)
# System: not listed separately
# Experiment: Reversal fold, ratio of PTX IC50 to PTX IC50 in presence of test compound for reversal of multi-drug resistance in human SW620/AD300 cells incubated for 72 hrs by CCK-8 assay (reference value: 1.0)
# Assay type: functional
# Settings: not given; call rule not given here
row,Compound,Ratio IC50
1,Fc1ccc(-c2nccc3c2[nH]c2ccccc23)cc1,5.3
2,CCc1nc(C(=O)OC)cc2c1[nH]c1ccccc12,1.3
3,Oc1ccc(-c2nccc3c2[nH]c2ccccc23)cc1,1.6
4,CC(C)Cc1nccc2c1[nH]c1ccccc12,3.2
5,N#Cc1cccc(-c2nccc3c2[nH]c2ccccc23)c1,2.2
6,N#Cc1ccc(-c2nccc3c2[nH]c2ccccc23)cc1,3.5
7,Clc1cc(Cl)cc(-c2nccc3c2[nH]c2ccccc23)c1,7.3
8,FC(F)(F)c1ccc(-c2nccc3c2[nH]c2ccccc23)cc1,3.2
9,COc1ccc(-c2nccc3c2[nH]c2ccccc23)cc1,37.8
10,Cc1nc(-c2ccc(-c3nccc4c3[nH]c3ccccc34)cc2)no1,27.5
11,CC(C)Cc1nccc2c3ccccc3n(Cc3ccccc3)c12,113.6
12,CCn1c2ccccc2c2ccnc(-c3ccc(C(F)(F)F)cc3)c21,14.8
13,CC(C)Cc1nc(C(=O)OCc2ccccc2)cc2c1[nH]c1ccccc12,4
14,CCOC(=O)c1cc2c([nH]c3ccccc32)c(CC(C)C)n1,47.4
15,Cc1nc(-c2cccc(-c3nccc4c3[nH]c3ccccc34)c2)no1,3.3
16,CCC(CC)c1nccc2c1[nH]c1ccccc12,31
17,Cn1c2ccccc2c2ccnc(-c3ccc(C(F)(F)F)cc3)c21,25.9
18,COc1ccc(-c2nccc3c4ccccc4n(Cc4ccc(C)cc4)c23)cc1,25.6
19,COc1ccc(-c2nccc3c4ccccc4n(Cc4ccc(C(C)C)cc4)c23)cc1,26.3
20,CCn1c2ccccc2c2ccnc(-c3ccc(OC)cc3)c21,12.3
21,C#CCn1c2ccccc2c2ccnc(CC(C)C)c21,15.9
22,COC(=O)c1cc2c([nH]c3ccccc32)c(CC(C)C)n1,2.7
23,CCc1ccc(-c2nccc3c4ccccc4n(Cc4ccc(C)cc4)c23)cc1,26.6

# System: not listed separately
# Experiment: Toxicity in male BALB/c nude mouse xenografted with ABCB1 overexpressing human SW620/AD300 cells assessed as cell necrosis in kidney at 50 mg/kg administered every 3 days and measured after 14 days by H and E staining based analysis
# Assay type: organism-based
# Settings: in vivo, 336 h, time 14 day
row,Compound,Activity
1,COc1ccc(-c2nccc3c4ccccc4n(C)c23)cc1,Non-toxic

# Target: T1, ATP-dependent translocase ABCB1 (Homo sapiens, UniProt P08183)
# T1 sequence (P08183 whole entry): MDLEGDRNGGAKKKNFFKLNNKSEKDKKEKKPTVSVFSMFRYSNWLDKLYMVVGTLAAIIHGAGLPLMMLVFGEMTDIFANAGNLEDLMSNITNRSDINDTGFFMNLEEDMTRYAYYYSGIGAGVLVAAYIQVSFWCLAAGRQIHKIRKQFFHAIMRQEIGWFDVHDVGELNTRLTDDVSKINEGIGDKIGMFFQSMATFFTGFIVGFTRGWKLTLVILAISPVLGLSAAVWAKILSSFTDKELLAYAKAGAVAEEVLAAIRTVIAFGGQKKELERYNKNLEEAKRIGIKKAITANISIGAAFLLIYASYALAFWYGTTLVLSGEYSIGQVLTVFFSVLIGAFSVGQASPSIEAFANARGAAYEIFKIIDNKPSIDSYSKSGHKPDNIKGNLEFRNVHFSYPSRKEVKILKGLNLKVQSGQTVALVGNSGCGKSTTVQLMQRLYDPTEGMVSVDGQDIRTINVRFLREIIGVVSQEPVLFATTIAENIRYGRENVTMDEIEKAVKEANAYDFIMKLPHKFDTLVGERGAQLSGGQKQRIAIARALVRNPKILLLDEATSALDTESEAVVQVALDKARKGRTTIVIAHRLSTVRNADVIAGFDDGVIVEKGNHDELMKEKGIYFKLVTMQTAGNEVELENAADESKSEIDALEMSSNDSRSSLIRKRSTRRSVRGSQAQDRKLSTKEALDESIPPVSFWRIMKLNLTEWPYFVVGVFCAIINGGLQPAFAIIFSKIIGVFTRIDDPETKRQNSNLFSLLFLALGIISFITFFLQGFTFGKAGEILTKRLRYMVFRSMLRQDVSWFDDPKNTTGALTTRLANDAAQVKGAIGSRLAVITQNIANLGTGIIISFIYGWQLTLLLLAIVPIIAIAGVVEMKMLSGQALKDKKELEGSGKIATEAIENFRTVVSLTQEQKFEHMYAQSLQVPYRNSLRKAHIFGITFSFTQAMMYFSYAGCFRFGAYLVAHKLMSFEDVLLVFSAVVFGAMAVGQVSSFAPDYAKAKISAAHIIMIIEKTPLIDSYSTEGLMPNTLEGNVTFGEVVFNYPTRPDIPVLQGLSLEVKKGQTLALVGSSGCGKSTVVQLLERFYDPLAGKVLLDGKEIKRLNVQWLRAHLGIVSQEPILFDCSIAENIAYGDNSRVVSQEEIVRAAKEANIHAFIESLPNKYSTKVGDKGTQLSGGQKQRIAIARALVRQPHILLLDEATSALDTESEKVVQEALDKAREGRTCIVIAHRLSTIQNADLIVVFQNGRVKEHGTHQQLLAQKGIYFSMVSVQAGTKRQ
# Experiment: Binding affinity to ABCB1 (unknown origin) in human SW620/AD300 cells assessed as thermal stabilization at 20 uM at 40 to 65 degreeC incubated for 30 mins by CETSA
# Assay type: cell-based
# Settings: sw620/ad300, 0.5 h
row,Compound,Activity
1,COc1ccc(-c2nccc3c4ccccc4n(C)c23)cc1,Active

# System: not listed separately
# Experiment: Toxicity in male BALB/c nude mouse xenografted with ABCB1 overexpressing human SW620/AD300 cells assessed as cell necrosis in spleen at 50 mg/kg administered every 3 days and measured after 14 days by H and E staining based analysis
# Assay type: organism-based
# Settings: in vivo, 336 h, time 14 day
row,Compound,Activity
1,COc1ccc(-c2nccc3c4ccccc4n(C)c23)cc1,Non-toxic

# Target: T1, ATP-dependent translocase ABCB1
# Experiment: Inhibition of ABCB1 in human SW620/AD300 cells assessed as accumulation of Rhodamine-123 by measuring fluorescence intensity incubated for 24 hrs by flow cytometric analysis
# Assay type: cell-based
# Settings: sw620/ad300, 24 h, at 5 to 20 µM, dose 5-20 µM
row,Compound,inhibition (INH)
1,COc1ccc(-c2nccc3c4ccccc4n(C)c23)cc1,Dose-dependent-effect

# System: not listed separately
# Experiment: Toxicity in male BALB/c nude mouse xenografted with ABCB1 overexpressing human SW620/AD300 cells assessed as body weight loss measured after 14 days in presence of paclitaxel
# Settings: 336 h, time 14 day
row,Compound,Activity
1,COc1ccc(-c2nccc3c4ccccc4n(C)c23)cc1,Non-toxic

# System: not listed separately
# Experiment: Toxicity in male BALB/c nude mouse xenografted with ABCB1 overexpressing human SW620/AD300 cells assessed as cell necrosis in liver measured after 14 days in presence of paclitaxel by H and E staining based analysis
# Settings: 336 h, time 14 day
row,Compound,Activity
1,COc1ccc(-c2nccc3c4ccccc4n(C)c23)cc1,Non-toxic

# System: not listed separately
# Experiment: Toxicity in male BALB/c nude mouse xenografted with ABCB1 overexpressing human SW620/AD300 cells assessed as cell necrosis in spleen measured after 14 days in presence of paclitaxel by H and E staining based analysis
# Settings: 336 h, time 14 day
row,Compound,Activity
1,COc1ccc(-c2nccc3c4ccccc4n(C)c23)cc1,Non-toxic

# System: not listed separately
# Experiment: Toxicity in male BALB/c nude mouse xenografted with ABCB1 overexpressing human SW620/AD300 cells assessed as cell necrosis in liver at 50 mg/kg administered every 3 days and measured after 14 days by H and E staining based analysis
# Assay type: organism-based
# Settings: in vivo, 336 h, time 14 day
row,Compound,Activity
1,COc1ccc(-c2nccc3c4ccccc4n(C)c23)cc1,Non-toxic

# System: not listed separately
# Experiment: Toxicity in male BALB/c nude mouse xenografted with ABCB1 overexpressing human SW620/AD300 cells assessed as body weight loss at 50 mg/kg administered every 3 days and measured after 14 days
# Assay type: organism-based
# Settings: in vivo, 336 h, time 14 day
row,Compound,Activity
1,COc1ccc(-c2nccc3c4ccccc4n(C)c23)cc1,Non-toxic

# System: SW620/AD300
# Experiment: Cytotoxicity against human SW620/AD300 cells assessed as reduction in cell viability at 20 uM incubated for 72 hrs by CCK-8 assay relative to control
# Assay type: functional
# Settings: not given
row,Compound,Activity [%]
1,Fc1ccc(-c2nccc3c2[nH]c2ccccc23)cc1,>80
2,CCc1nc(C(=O)OC)cc2c1[nH]c1ccccc12,>80
3,Oc1ccc(-c2nccc3c2[nH]c2ccccc23)cc1,>80
4,CC(C)Cc1nccc2c1[nH]c1ccccc12,>80
5,N#Cc1cccc(-c2nccc3c2[nH]c2ccccc23)c1,>80
6,N#Cc1ccc(-c2nccc3c2[nH]c2ccccc23)cc1,>80
7,Clc1cc(Cl)cc(-c2nccc3c2[nH]c2ccccc23)c1,>80
8,FC(F)(F)c1ccc(-c2nccc3c2[nH]c2ccccc23)cc1,>80
9,COc1ccc(-c2nccc3c2[nH]c2ccccc23)cc1,>80
10,CCc1ccc(-c2nccc3c2[nH]c2ccccc23)cc1,<80
11,CCc1ccc(-c2nccc3c4ccccc4n(CC)c23)cc1,<80
12,Cc1nc(-c2ccc(-c3nccc4c3[nH]c3ccccc34)cc2)no1,>80
13,COc1ccc2[nH]c3c(CC(C)C)nccc3c2c1,<80
14,Cc1ccc(-c2nccc3c2[nH]c2ccccc23)cc1,<80
15,CC(C)Cc1nccc2c3ccccc3n(Cc3ccccc3)c12,>80
16,CCn1c2ccccc2c2ccnc(-c3ccc(C(F)(F)F)cc3)c21,>80
17,CC(C)Cc1nc(C(=O)OCc2ccccc2)cc2c1[nH]c1ccccc12,>80
18,CC(C)Cc1nccc2c3ccccc3n(CC(C)C)c12,<80
19,CCOC(=O)c1cc2c([nH]c3ccccc32)c(CC(C)C)n1,>80
20,Cc1nc(-c2cccc(-c3nccc4c3[nH]c3ccccc34)c2)no1,>80
21,COc1ccc(-c2nccc3c4ccccc4n(Cc4ccccc4C)c23)cc1,<80
22,Cc1cccc2c1[nH]c1c(CC(C)C)nccc12,<80
23,COc1ccc(-c2nccc3c2[nH]c2c(C)cccc23)cc1,<80
24,CCc1ccc(-c2nccc3c4ccccc4n(Cc4ccc(C(C)C)cc4)c23)cc1,<80

row,Compound,Activity [%]
1,CCC(CC)c1nccc2c1[nH]c1ccccc12,>80
2,COc1ccc(-c2nccc3c4ccccc4n(Cc4ccccc4)c23)cc1,<80
3,Cn1c2ccccc2c2ccnc(-c3ccc(C(F)(F)F)cc3)c21,>80
4,CCc1ccc(-c2nc(C(=O)OCc3ccccc3)cc3c2[nH]c2ccccc23)cc1,>80
5,CCc1ccc(-c2nc(C(=O)OC)cc3c2[nH]c2ccccc23)cc1,>80
6,COc1ccc(-c2nccc3c2[nH]c2ccc(OC)cc23)cc1,<80
7,CCC(CC)c1nccc2c3ccccc3n(CC)c12,<80
8,COc1ccc(-c2nccc3c2[nH]c2cc(OC)ccc23)cc1,80
9,COc1ccc(-c2nccc3c4ccccc4n(Cc4ccc(C)cc4)c23)cc1,>80
10,CCC(CC)c1nccc2c1[nH]c1ccc(OC)cc12,<80
11,COc1ccc(-c2nccc3c4ccccc4n(Cc4ccc(C(C)C)cc4)c23)cc1,>80
12,CCc1ccc(-c2nccc3c4ccccc4n(C)c23)cc1,<80
13,CC(C)c1ccc(-c2nccc3c2[nH]c2ccccc23)cc1,<80
14,CC(C)Cc1nccc2c3ccccc3n(C)c12,<80
15,CCc1ccc(-c2nccc3c4ccccc4n(Cc4ccccc4C)c23)cc1,<80
16,CCn1c2ccccc2c2ccnc(CC(C)C)c21,<80
17,CCn1c2ccccc2c2ccnc(-c3ccc(OC)cc3)c21,>80
18,C#CCn1c2ccccc2c2ccnc(CC(C)C)c21,>80
19,COC(=O)c1cc2c([nH]c3ccccc32)c(CC(C)C)n1,>80
20,CCc1ccc(-c2nccc3c4ccccc4n(Cc4ccc(C)cc4)c23)cc1,>80
21,COc1ccc2c(c1)[nH]c1c(CC(C)C)nccc12,<80
22,COc1cc(OC)cc(-c2nccc3c2[nH]c2ccccc23)c1,<80
23,CCC(CC)c1nccc2c3ccccc3n(C)c12,<80

# System: not listed separately
# Experiment: Toxicity in male BALB/c nude mouse xenografted with ABCB1 overexpressing human SW620/AD300 cells assessed as cell necrosis in kidney measured after 14 days in presence of paclitaxel by H and E staining based analysis
# Assay type: tissue-based
# Settings: 336 h, time 14 day
row,Compound,Activity
1,COc1ccc(-c2nccc3c4ccccc4n(C)c23)cc1,Non-toxic
